Records with an inconclusive call do not appear. Calls of active or inactive are those of the source. No rule for the calls is given here.
Biological target: S. cerevisiae eIF2B mutant, luciferase reporter luminescence
Assay: eIF2B reporter inhibitors in yeast strains, dose response, S. cerevisiae, mutant, wild-type, luminescence, growth (AID 792)
[1] = measured here: mutant yeast growth
[2] = S. cerevisiae wild-type, luminescence

SMILES	IC50	IC50 [1]	IC50 [2]
Cc1ccc(NC(=O)CN(C)C(=O)CSc2nc3ccccc3o2)cc1	> 100 µM (inactive)	> 100 µM	
Oc1ccccc1-c1nnc(-c2ccc(C(F)(F)F)cc2)o1	> 100 µM (inactive)	> 100 µM	
Cc1nnc2sc(-c3ccncc3)nn12	> 100 µM (inactive)	> 100 µM	
CNC(=O)CSc1nc(N)c2c3c(sc2n1)CCC3	> 100 µM (inactive)	> 100 µM	
O=C1c2ccccc2C(=O)C1c1ccncc1	inactive	> 100 µM	17.9 µM
CCOC(=O)c1nn(-c2cccc(Cl)c2)c2nc(CC(C)C)c(C#N)c(=O)n12	> 100 µM (inactive)	> 100 µM	
Cc1cccc(N2C(=O)c3cccnc3C2=O)c1	> 100 µM (inactive)	> 100 µM	
CCCCn1nnnc1SCC(=O)N1CCOCC1	> 100 µM (inactive)	> 100 µM	
CCCC(CCC(=O)NC1CCCCC1)C(=O)O (configuration not stated)	> 100 µM (inactive)	> 100 µM	
Cc1nc2ccc(NC(=O)Cc3ccsc3)cc2s1	> 100 µM (inactive)	> 100 µM	
COc1ccc2[nH]c(=O)c(CN(C(=O)c3cccnc3)c3ccc(C)cc3)cc2c1	> 100 µM (inactive)	> 100 µM	
COC(=O)c1cc(O)c(OCc2ccccc2)c(O)c1	> 100 µM (inactive)	> 100 µM	
CCCC1CC(C)(c2csc(Nc3ccc(OCC)cc3)n2)OC1=O (configuration not stated)	> 100 µM (inactive)	> 100 µM	
Fc1ccc(Nc2nc(Oc3ccc4c(c3)OCO4)nc(N3CCOCC3)n2)c(F)c1	> 100 µM (inactive)	> 100 µM	
CCC(CC)c1nnc(NC(=O)c2cccc(S(=O)(=O)N3CCc4ccccc43)c2)s1	> 100 µM (inactive)	> 100 µM	
COc1ccc(-c2nnn(CC(=O)N(Cc3ccc(F)cc3)C(C(=O)NC3CCCC3)c3ccc(F)cc3)n2)cc1 (configuration not stated)	> 100 µM (inactive)	> 100 µM	
CC(C)NC(=O)CCNS(=O)(=O)c1ccc(Br)cc1	> 100 µM (inactive)	24.2 µM	> 100 µM
COc1ccc(C2NC(=O)NC(C)=C2C(C)=O)cc1 (configuration not stated)	> 100 µM (inactive)	> 100 µM	
CCOC(=O)CSc1ccc(-c2nc3cc(C)c(C)cc3[nH]2)cn1	> 100 µM (inactive)	> 100 µM	
Cc1nn(-c2ccccc2)c(Cl)c1/C=N/Nc1ccc(S(=O)(=O)Nc2ccccc2C(=O)O)cc1[N+](=O)[O-]	> 100 µM (inactive)	> 100 µM	
COc1cccc(-c2nc(N3CCCCC3C)c3ccccc3n2)c1O (configuration not stated)	> 100 µM (inactive)	> 100 µM	
O=C(CC(C(=O)N1CCc2ccccc21)n1ccnc1)NCC1CCCO1 (configuration not stated)	> 100 µM (inactive)	> 100 µM	
CC1(C)Cc2c(c(=S)nc(-c3ccccc3)n2CCOCCO)CO1	> 100 µM (inactive)	> 100 µM	
C=CCc1c(C)nc(C)nc1N/N=C/c1ccccc1O	> 100 µM (inactive)	> 100 µM	
CN1C(=O)CC2(CC(=O)N(Cc3ccccc3)C2)C1=O (configuration not stated)	> 100 µM (inactive)	> 100 µM	
CCCCN(C(=O)Cn1nnc2ccccc21)C(C(=O)NCCOC)c1ccccc1 (configuration not stated)	> 100 µM (inactive)	> 100 µM	
Nn1c(COc2cccc(Br)c2)nnc1SCC(=O)N1CCc2ccccc2C1	> 100 µM (inactive)	> 100 µM	

SMILES	IC50	IC50 [1]	IC50 [2]
COC(=O)C(NC(=O)c1ccco1)(Nc1nc(C)cs1)C(F)(F)F (configuration not stated)	> 100 µM (inactive)	> 100 µM	
O=C(C1CCN(S(=O)(=O)N2CCOCC2)CC1)N1CCOCC1	> 100 µM (inactive)	> 100 µM	> 100 µM
COc1ccccc1NC(=O)c1cc2ccccc2o/c1=N\O	> 100 µM (inactive)	> 100 µM	
Cc1ccc(SCc2cc(=O)[nH]c(N3CCN(Cc4ccc5c(c4)OCO5)CC3)n2)cc1	> 100 µM (inactive)	> 100 µM	
Cc1cc(/C([O-])=C(/C(=S)Nc2ccc(F)cc2)[n+]2ccccc2)c(C)n1-c1ccc(F)cc1	> 100 µM (inactive)	> 100 µM	
CNC(=O)Cn1nc(-c2ccc(C)c(S(=O)(=O)N(C)C)c2)c2ccccc2c1=O	> 100 µM (inactive)	> 100 µM	
O=C(Nc1ccc(Sc2ccc(Br)cc2)cc1)c1ccco1	> 100 µM (inactive)	> 100 µM	
CCOc1ccc(C2NC(=O)NC(C)=C2C(=O)OC)cc1C (configuration not stated)	inactive	33.3 µM	
CCS(=O)(=O)N1CCCC(C(=O)NCCN(C)Cc2ccccc2)C1 (configuration not stated)	> 100 µM (inactive)	> 100 µM	
COc1cc(/C=C2\C(=O)N(CCC#N)N=C2C)c(Br)cc1OC(C)C	> 100 µM (inactive)	> 100 µM	
CN1C(=O)N(C)C(=O)C2(Cc3c(nc4ccccn4c3=O)N3CCc4ccccc4C32)C1=O (configuration not stated)	> 100 µM (inactive)	> 100 µM	
Cc1cc(=O)[nH]c(N=N/C(=N/Nc2ccc(O)cc2)c2ccccc2)n1	inactive	> 100 µM	45.2 µM
Cc1ccc(C)c(N2CCN(C(=O)c3ccc(CS(=O)(=O)c4ccccc4C)o3)CC2)c1	> 100 µM (inactive)	> 100 µM	
Cc1ccc(S(=O)(=O)n2nc(OC(=O)c3ccco3)cc2N)cc1	> 100 µM (inactive)	> 100 µM	
COc1ccc(S(=O)(=O)CCC(=O)N2c3ccccc3CC2C)cc1 (configuration not stated)	> 100 µM (inactive)	> 100 µM	
CC(C)CCNC1=NCCCCC1	> 100 µM (inactive)	> 100 µM	
Cc1csc(NC(=O)NC2(C(F)(F)F)Oc3ccccc3O2)n1	> 100 µM (inactive)	> 100 µM	
Cc1cc(C(=O)Nc2ccccc2C(F)(F)F)no1	> 100 µM (inactive)	> 100 µM	
Cc1ccc(NC(=O)c2ccc(S(=O)(=O)N3CCCCC3)cc2)cc1	> 100 µM (inactive)	> 100 µM	
Cc1cc(N)n2nc(-c3ccc(C(C)(C)C)cc3)cc2n1	inactive	30.1 µM	
CCn1c(Cc2ccccc2)nnc1SCC(=O)Nc1nnc(-c2ccccc2)s1	> 100 µM (inactive)	> 100 µM	
CC(=O)/C=C(\C)Nc1ccc(-c2cnc(-c3ccccc3)o2)cc1	inactive	> 100 µM	> 100 µM
Cc1ccc(N2CC(C(=O)Nc3ccccc3C(=O)NC3CCCCC3)CC2=O)cc1C (configuration not stated)	> 100 µM (inactive)	> 100 µM	
CC(C)Cc1nnc(NC(=O)CC(=O)Nc2ccccc2C(=O)O)s1	inactive	> 100 µM	65.4 µM
Cc1cc(C)cc(OCc2nnc(SCC(=O)N3CCN(c4ccccc4)CC3)o2)c1	> 100 µM (inactive)	> 100 µM	
Cn1ncc(C#N)c1/N=C/N1CCOCC1	> 100 µM (inactive)	> 100 µM	
COc1cc(NS(=O)(=O)c2ccc3c(c2)n(C)c(=O)n3C)cc(OC)c1	> 100 µM (inactive)	> 100 µM	

SMILES	IC50	IC50 [1]	IC50 [2]
Cc1cc(C)n(-c2cc(=O)n(C)c(=O)n2C)n1	> 100 µM (inactive)	> 100 µM	
CC(=O)c1cnc(Nc2nc(C)c3cc(C)c(C)cc3n2)nc1C	> 100 µM (inactive)	> 100 µM	
CC(=O)Nc1ccc(OCC(O)CN2CCN(S(=O)(=O)c3ccc(NC(C)=O)cc3)CC2)cc1 (configuration not stated)	> 100 µM (inactive)	> 100 µM	
C=CCN(C(=O)Cn1c(C(=O)OC)cc2oc(C)cc21)c1ccccc1	> 100 µM (inactive)	> 100 µM	
Oc1ccccc1C1=Nc2ncnn2C(c2ccc(F)cc2)C1 (configuration not stated)	> 100 µM (inactive)	> 100 µM	
Cc1ccc(-c2cn(S(=O)(=O)c3cccc4nsnc34)nc2N)cc1	> 100 µM (inactive)	> 100 µM	
CC(=O)Nc1ccc(C(=O)NC2CCCC2)cc1	> 100 µM (inactive)	> 100 µM	
N#CC1=C(SCC(=O)c2ccc(Cl)cc2)NC2=C(C(=O)CCC2)C1c1ccco1 (configuration not stated)	> 100 µM (inactive)	> 100 µM	
COc1ccc(OC)c2c(N3CCN(C)CC3)cc(C(F)(F)F)nc12	> 100 µM (inactive)	> 100 µM	
O=C(CSc1nnc(-c2ccccn2)n1-c1ccccc1)Nc1ccc2c(c1)OCO2	> 100 µM (inactive)	> 100 µM	
O=C(c1ccccc1)N1CCN(C(=O)c2ccncc2)CC1	> 100 µM (inactive)	> 100 µM	
CN(Cc1c(F)cccc1Cl)c1ccc(S(=O)(=O)N2CCOCC2)cn1	> 100 µM (inactive)	> 100 µM	
CCOc1cc(-c2nc(-c3ccc(C)nc3OCC)no2)cc(OCC)c1OCC	> 100 µM (inactive)	> 100 µM	
CCOC(=O)c1c(C)[nH]c(C(=O)Nc2ccc3c(c2)OCO3)c1C	> 100 µM (inactive)	> 100 µM	
CCCCN1C(=O)CN(CCc2ccccc2)C(=O)C1c1ccc(OC)cc1 (configuration not stated)	> 100 µM (inactive)	> 100 µM	
Cc1nnc(NC(=O)C2(c3ccccc3)CCOCC2)s1	> 100 µM (inactive)	> 100 µM	
CCCCCn1c(NC(=O)c2ccco2)c(S(=O)(=O)c2ccc(C)cc2)c2nc3ccccc3nc21	> 100 µM (inactive)	> 100 µM	
CCCCOc1ccc(C2CC(=O)N(C)C2=O)cc1 (configuration not stated)	> 100 µM (inactive)	> 100 µM	
COc1cc(-c2nn3c(-c4ccccn4)nnc3s2)cc(OC)c1OC	> 100 µM (inactive)	> 100 µM	
CN1CCc2nc(SCC(=O)Nc3ccc(Cl)cc3)c(C#N)cc2C1	> 100 µM (inactive)	> 100 µM	
CC(C)c1[nH]c(=O)c(C#N)c2c1COC(C)(C)C2	> 100 µM (inactive)	> 100 µM	
CCOP(=O)(C#CC(C)(C)C)C1(O)CCCCC1 (configuration not stated)	> 100 µM (inactive)	> 100 µM	
CCc1ccc2c(c1)C1(NN=C(c3ccc(C)cc3)S1)C(=O)N2 (configuration not stated)	inactive	99 µM	> 100 µM
COc1ccc(C(=O)/C=C/Nc2ccccn2)cc1	inactive	> 100 µM	18.3 µM
Cc1c(O)c(CN2CCCC2)cc2c1oc(=O)c1ccccc12	> 100 µM (inactive)	> 100 µM	> 100 µM

— PubChem BioAssay AID792 (PCMD, 2007)
